Assay [1] has as its system TGF-beta 1 stimulated SBE-bla HEK 293T. Briefly: GeneBLAzer beta-lactamase (bla) reporter, TGF-beta 1 stimulated SBE-bla HEK 293T cell-based assay (ThermoFisher SelectScreen). To be noted: Homo sapiens; SBE-bla HEK 293T cells; 30 minutes pre-incubation with inhibitor; TGF-beta 1 0.03 nM, 5 hours; inhibitor 10,000nM to 0.316nM; read-out: Cells (SBE_HEK293T) IC50. The text has this: (§1) Table 2, below, describes the results of assays carried out on some compounds provided by the present disclosure. Exemplified compounds are confirmed to inhibit ALK5 activity in enzyme and cellular assays in the following assay systems conducted by ThermoFisher in Madison, WI according to their commercially available protocols.
ThermoFisher SelectScreen™ Cell-based Pathway Profiling Service GeneBLAzer Beta-lactamase (bla) Reporter Technology - TGF-beta 1 stimulated SBE-bla HEK 293T Cell-based Assay
SBE-bla HEK 293T cells are thawed and re-suspended in Assay Media (OPTI-MEM, 0.5% dialyzed FBS, 0.1 mM NEAA, 1 mM Sodium Pyruvate, 100 U/mL/100 µg/mL Pen/Strep) to a concentration of 625,000 cells/mL. 32 µL of cell suspension (20,000 cells) is added to each well of a 384-well Poly-D-Lysine assay plate. Cells in Assay Media are incubated for 16-24 hours in the plate at 37°C/5% CO2 in a humidified incubator. 4 µL of a 10X serial dilution of ALK5 inhibitors (10x = 100,000-3.16 nM) is added to appropriate wells of the plate and pre-incubated at 37°C/5% CO2 in a humidified incubator with cells for 30 minutes. Final concentration of inhibitor ranged from 10,000nM to 0.316nM. 4 µL of 10X TGF-beta 1 (final concentration of 0.03 nM) is added to wells containing the inhibitors. The plate is incubated for 5 hours at 37°C/5% CO2 in a humidified incubator. 8 µL of 1 µM Substrate Loading Solution is added to each well and the plate is incubated for 2 hours at room temperature before being read on a fluorescence plate reader. Percent inhibition is determined compared to DMSO only control (maximal TGF-beta 1 stimulation) and sigmoidal dose response curve fit yielded IC50 values as indicated in Table 2. TABLE 2: Biological activity assay results

Assay [2] concerns the target T1, TGFBR1 (ALK5) (Homo sapiens, UniProt P36897).
T1 sequence (P36897 34-503): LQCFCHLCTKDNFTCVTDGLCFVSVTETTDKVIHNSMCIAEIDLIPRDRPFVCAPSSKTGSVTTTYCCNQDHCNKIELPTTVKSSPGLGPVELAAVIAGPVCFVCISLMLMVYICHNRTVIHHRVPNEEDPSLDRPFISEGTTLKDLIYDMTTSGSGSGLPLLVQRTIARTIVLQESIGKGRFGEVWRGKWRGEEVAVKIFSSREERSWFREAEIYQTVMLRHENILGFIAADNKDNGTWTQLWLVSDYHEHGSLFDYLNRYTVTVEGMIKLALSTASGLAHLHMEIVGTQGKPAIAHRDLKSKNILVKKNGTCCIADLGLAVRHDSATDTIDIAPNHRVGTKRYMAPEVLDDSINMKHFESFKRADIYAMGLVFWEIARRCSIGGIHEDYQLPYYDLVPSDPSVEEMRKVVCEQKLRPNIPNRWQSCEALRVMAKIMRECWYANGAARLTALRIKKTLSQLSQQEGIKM
Briefly: LanthaScreen Eu Kinase Binding Assay TGFBR1 (ALK5) (ThermoFisher SelectScreen). To be noted: ALK5 5 nM, Tracer #178 5 nM, Eu-anti-GST antibody 2 nM, 1 hour at room temperature, 1% DMSO; read-out: TβRI (ALK5) Binding IC50.
Description: as §1
ThermoFisher SelectScreen™ Biochemical Kinase Profiling Service, LanthaScreen™Eu Kinase Binding Assay TGFBR1 (ALK5)
Exemplified compounds are screened in 1% DMSO (final concentration) by 3-fold serial dilutions from 10,000 nM to 0.316 nM or at single concentrations of 10,000, 1000 and 100 nM according to the following protocol. To low volume, white 384-well plates (Greiner Cat#784207) add 160 nL 100x compound in 100% DMSO, 3.84 uL kinase buffer (50 mM HEPES, pH 7.5, 0.01% BRIJ-35, 10 mM MgCl2, 1 mM EGTA), 8 uL 2x kinase/antibody mixture in kinase buffer (final ALK5 concentration of 5 nM; final Eu-anti-GST antibody concentration of 2 nM), 4 uL 4x Tracer #178 in kinase buffer (final concentration of 5 nM). Gently shake the plates for 30 seconds and incubate at room temperature for 1 hour before reading fluorescence on a plate reader. Percent inhibition is determined compared to DMSO only control (maximal ALK5 tracer binding) and sigmoidal dose response curve fit yielded IC50 values as indicated in Table 2.
On the technique in general: In TR-FRET formats the signal depends on donor and acceptor labels being close together.

Data on 21 compounds can be found in patent publication EP3840748B1, “SUBSTITUTED IMIDAZOLES FOR THE INHIBITION OF TGF-BETA AND METHODS OF TREATMENT” (Clavius Pharmaceuticals, LLC, priority 2018, dated 2020).

Molecules are shown by their SMILES. Structures can show the parent of a compound that is named as a salt.

The term IC50 denotes the concentration at which inhibition is half-maximal. For the compound `CC(C)n1ccc(-c2nc3occn3c2-c2ccc3nc[nH]c(=O)c3c2)n1` [Compound 23, 6-{7-(1-Isopropyl-1H-pyrazol-3-yl)-4-oxa-1,6-diazabicyclo[3.3.0]octa-2,5,7-trien-8-yl}-3H-quinazolin-4-one], the values for the IC50 in assay [1] and in assay [2] were 239 nM and 5.2 nM, respectively.

On to `NC(=O)c1cnc2ccc(-c3c(-c4ccn(C5CC5)n4)nc4n3CCC4)cn12` [Compound 8, 5-{3-(1-Cyclopropyl-1H-pyrazol-3-yl)-1,4-diazabicyclo[3.3.0]octa-2,4-dien-2-yl}-1,3a-diaza-3-indenecarboxamide], for which the IC50 is 84 nM in assay [1] and 3.3 nM in assay [2]. With `O=C(c1ccc(-c2cc(-c3c(-c4ccn(C5CC5)n4)nc4n3CCC4)ccn2)cc1)N1CCOCC1` [Compound 93, (4-(4-(2-(1-Cyclopropyl-1H-pyrazol-3-yl)-6,7-dihydro-5H-pyrrolo[1,2-a]imidazol-3-yl)pyridin-2-yl)phenyl)(morpholino)methanone], in assay [2], the IC50 worked out at 244 nM. On to `CS(=O)(=O)c1ccc(-c2cc(-c3c(-c4ccn(C5CC5)n4)nc4n3CCC4)ccn2)cc1` [Compound 86, 2-(1-Cyclopropyl-1H-pyrazol-3-yl)-3-(2-(4-(methylsulfonyl)phenyl)pyridin-4-yl)-6,7-dihydro-5H-pyrrolo[1,2-a]imidazole], for which the IC50 in assay [1] came to 1400 nM; in assay [2], 129 nM. The corresponding values for `O=C(NC1CCOCC1)c1ccc(-c2cc(-c3c(-c4ccn(C5CC5)n4)nc4n3CCC4)ccn2)cc1` [Compound 88, 4-(4-(2-(1-Cyclopropyl-1H-pyrazol-3-yl)-6,7-dihydro-5H-pyrrolo[1,2-a]imidazol-3-yl)pyridin-2-yl)-N-(tetrahydro-2H-pyran-4-yl)benzamide] are 988 nM and 55 nM. The corresponding values for `CC(C)n1ccc(-c2nc3sccn3c2-c2ccc3nc[nH]c(=O)c3c2)n1` [Compound 97, 6-(6-(1-Isopropyl-1H-pyrazol-3-yl)imidazo[2,1-b]thiazol-5-yl)quinazolin-4(3H)-one hydrochloride] are 528 nM and 12.5 nM. The corresponding values for `O=c1[nH]cnc2ccc(-c3c(-c4ccn(C5CC5)n4)nc4occn34)cc12` [Compound 24, 6-{7-(1-Cyclopropyl-1H-pyrazol-3-yl)-4-oxa-1,6-diazabicyclo[3.3.0]octa-2,5,7-trien-8-yl}-3H-quinazolin-4-one] are 37 nM and 1.8 nM.

As for `Oc1ncnc2ccc(-c3c(-c4ccn(C5CC5)n4)nc4n3CCC4)cc12` [Compound 16, 6-{3-(1-Cyclopropyl-1H-pyrazol-3-yl)-1,4-diazabicyclo[3.3.0]octa-2,4-dien-2-yl}-3H-quinazolin-4-one], the concentration for half-maximal inhibition (IC50) in assay [1] amounted to 117 nM; in assay [2] it was 2.6 nM. Take `Cn1cnc2ccc(-c3c(-c4ccn(C5CC5)n4)nc4n3CCC4)cc2c1=O` [Compound 18, 6-{3-(1-Cyclopropyl-1H-pyrazol-3-yl)-1,4-diazabicyclo[3.3.0]octa-2,4-dien-2-yl}-3-methyl-3H-quinazolin-4-one]: the values for the IC50 in assay [1] and in assay [2] were 69 nM and 6.7 nM, respectively.

As for `NC(=O)c1ncnc2ccc(-c3c(-c4ccn(C5CC5)n4)nc4n3CCC4)cc12` [Compound 95, 6-(2-(1-Cyclopropyl-1H-pyrazol-3-yl)-6,7-dihydro-5H-pyrrolo[1,2-a]imidazol-3-yl)quinazoline-4-carboxamide], the 50% inhibitory concentration (IC50) in assay [1] stood at 151 nM; in assay [2] it was 8.9 nM. The corresponding values for `Oc1ncnc2ccc(-c3c(-c4ccn(C5CC5)n4)nc4n3CCC4)cc12` [Compound 92, 6-(2-(1-Cyclopropyl-1H-pyrazol-3-yl)-6,7-dihydro-5H-pyrrolo[1,2-a]imidazol-3-yl)quinazolin-4-ol] are 57 nM and 11 nM. The corresponding values for `O=c1[nH]cnc2ccc(-c3c(-c4ccn(C5CC5)n4)nc4sccn34)cc12` [Compound 90, 6-{7-(1-Cyclopropyl-1H-pyrazol-3-yl)-4-thia-1,6-diazabicyclo[3.3.0]octa-2,5,7-trien-8-yl}-3H-quinazolin-4-one] are 35.6 nM and 2.5 nM. The corresponding values for `Cn1cnc2ccc(-c3c(-c4ccn(C5CCC5)n4)nc4n3CCC4)cc2c1=O` [Compound 94, 6-(2-(1-Cyclobutyl-1H-pyrazol-3-yl)-6,7-dihydro-5H-pyrrolo[1,2-a]imidazol-3-yl)-3-methylquinazolin-4(3H)-one] are 4080 nM and 27 nM. As to `CC(C)(O)c1cnc2ccc(-c3c(-c4ccn(C5CC5)n4)nc4n3CCC4)cn12` [Compound 75, 2-(6-(2-(1-Cyclopropyl-1H-pyrazol-3-yl)-6,7-dihydro-5H-pyrrolo[1,2-a]imidazol-3-yl)imidazo[1,2-a]pyridin-3-yl)propan-2-ol], the IC50 in assay [1] was found to be 930 nM; in assay [2], 66 nM. The corresponding values for `Cn1cnc2ccc(-c3c(-c4ccn(C5CC5)n4)nc4occn34)cc2c1=O` [Compound 26, 6-{7-(1-Cyclopropyl-1H-pyrazol-3-yl)-4-oxa-1,6-diazabicyclo[3.3.0]octa-2,5,7-trien-8-yl}-3-methyl-3H-quinazolin-4-one] are 33.8 nM and 3.1 nM.

As to `O=c1c2cc(-c3c(-c4ccn(C5CC5)n4)nc4n3CCC4)ccc2ncn1CCN1CCOCC1` [Compound 28, 6-{3-(1-Cyclopropyl-1H-pyrazol-3-yl)-1,4-diazabicyclo[3.3.0]octa-2,4-dien-2-yl}-3-(2-morpholinoethyl)-3H-quinazolin-4-one], the IC50 in assay [2] is 107 nM. For `Cn1cnc2ccc(-c3c(-c4ccn(C5CC5)n4)nc4sccn34)cc2c1=O` [Compound 89, 6-{7-(1-Cyclopropyl-1H-pyrazol-3-yl)-4-thia-1,6-diazabicyclo[3.3.0]octa-2,5,7-trien-8-yl}-3-methyl-3H-quinazolin-4-one], the IC50 was determined as 27 nM in assay [1] and 2.5 nM in assay [2]. The corresponding values for `CC(C)n1ccc(-c2nc3n(c2-c2ccc4ncc(C(N)=O)n4c2)CCC3)n1` [Compound 7, 5-{3-(1-Isopropyl-1H-pyrazol-3-yl)-1,4-diazabicyclo[3.3.0]octa-2,4-dien-2-yl}-1,3a-diaza-3-indenecarboxamide] are 248 nM and 5.5 nM.

Take `CC(C)n1ccc(-c2nc3occn3c2-c2ccc3ncn(C)c(=O)c3c2)n1` [Compound 25, 6-{7-(1-Isopropyl-1H-pyrazol-3-yl)-4-oxa-1,6-diazabicyclo[3.3.0]octa-2,5,7-trien-8-yl}-3-methyl-3H-quinazolin-4-one]: the values for the half-inhibitory concentration (IC50) in assay [1] and in assay [2] were 238 nM and 7.2 nM, respectively. In the case of `Cn1cnc2ccc(-c3c(-c4ccn(CC(F)F)n4)nc4n3CCC4)cc2c1=O` [Compound 50, 6-{3-[1-(2,2-Difluoroethyl)-1H-pyrazol-3-yl]-1,4-diazabicyclo[3.3.0]octa-2,4-dien-2-yl}-3-methyl-3H-quinazolin-4-one], the half-inhibitory concentration (IC50) in assay [1] is 253 nM; in assay [2], 90 nM.

In the case of `O=c1[nH]cnc2ccc(-c3c(-c4ccn(CC(F)F)n4)nc4n3CCC4)cc12` [Compound 49, 6-{3-[1-(2,2-Difluoroethyl)-1H-pyrazol-3-yl]-1,4-diazabicyclo[3.3.0]octa-2,4-dien-2-yl}-3H-quinazolin-4-one], the 50% inhibitory concentration (IC50) in assay [1] is 2400 nM; in assay [2] it was 52 nM.
